Patent US12678454B2, “Bicarbonate as a potentiator for antimicrobial agents” (priority 2017, dated 2026)
Read-outs that look alike come from different tables or passages of the source. Bridge positions count the residues as written; N and C are the ends. Square brackets hold non-standard residues; d marks the D form. Peptide text beside a SMILES is read from it. * marks the point of attachment. Ileψ(thiazoline)Cys = CC[C@H](C)[C@H](N)C1=N[C@H](C(=O)*)CS1; dOrn = NCCC[C@@H](N)C(=O)O

What was measured:
[1] = system: E. coli (K-12 BW25113); assay type: cell-based, Escherichia coli; parameters: MIC, E. coli, MHB− / MIC, E. coli, MHB+: unit not given here
Protocol: (§1) In the following experiments, bacterial cells were cultured in 96-well microtiter plates in cation-adjusted Mueller-Hinton Broth (MHB) for 18 h at 37° C. The main strains used in this study were E. coli (K-12 BW25113) (placed in stationary incubator) and S. aureus (Strain Newman) (incubated at 250 r.p.m). Knockout strains (ΔtolcC and ΔychM) were used from the Keio knockout collection (Baba, T. et al. Construction of Escherichia coli K-12 in-frame, single-gene knockout mutants: the Keio collection. Mol Syst Biol 2, 2006 0008, doi:10.1038/msb4100050 (2006)). For minimum concentration for inhibition (MIC) determination and checkerboard analyses, Clinical & Laboratory Standards Institute (CLSI) protocol was used. […] DiSC3 loading of S. aureus cells was performed as previously described (Farha, M. A., Verschoor, C. P., Bowdish, D. & Brown, E. D. Collapsing the proton motive force to identify synergistic combinations against Staphylococcus aureus. Chemistry & biology 20, 1168-1178, doi:10.1016/j.chembiol.2013.07.006 (2013)). CCCP concentration of 20 μM was used. pH adjustments were made by addition of HCl or NaOH. INT assay and ATP bioluminescence assays were performed as previously described (Farha, M. A., Verschoor, C. P., Bowdish, D. & Brown, E. D. Collapsing the proton motive force to identify synergistic combinations against Staphylococcus aureus. Chemistry & biology 20, 1168-1178, doi:10.1016/j.chembiol.2013.07.006 (2013)). For chemical-genomic studies, the Keio library was grown overnight in cation-adjusted MHB broth, in 384-well plates. From these, treatment plates (25 mM sodium bicarbonate, or a sterile water control) were inoculated and grown for 15 hours at 37° C., in a stationary incubator. Data was normalized according to Mangat et al (Mangat, C. S., Bharat, A., Gehrke, S. S. & Brown, E. D. Rank ordering plate data facilitates data visualization and normalization in high-throughput screening. J Biomol Screen 19, 1314-1320, doi:10.1177/1087057114534298 (2014)), with gene products and GO terms mined from EcoCyc. The GFP promoter library (Keseler, I. M. et al. EcoCyc: fusing model organism databases with systems biology. Nucleic Acids Res 41, D605-612, doi:10.1093/nar/gks1027 (2013)) was grown for 18 hours at ambient temperature with the same inoculation strategy as with the Keio collection. The analysis pipeline of Zaslaver et al (Zaslaver, A. et al. A comprehensive library of fluorescent transcriptional reporters for Escherichia coli. Nat Methods 3, 623-628, doi:10.1038/nmeth895 (2006)) was used to generate maps of promoter activity, from which lists of promoters with increased or decreased activity were compiled.

[2] = system: A. baumannii; experiment: Murine model of systemic A. baumannii infection; assay type: in vivo; details: mice
Protocol: Mice were treated two-hours post-infection to allow complete organ occupancy by the injected cells.

[3] = system: methicillin-resistance Staphylococcus aureus (MRSA) USA-300; experiment: Superficial skin infection model, tape-stripped mice; assay type: in vivo; details: topical 0.5% aqueous solution with or without bicarbonate (50 mM)
Protocol: In this model, an infection is established by disrupting the skin barrier through partial removal of the epidermal layer by stripping with adhesive tape and with subsequent application of the pathogen. Tape-stripped mice infected with 4×10^6 CFU/mL A. baumannii (FIG. 4A) or 4×10^6 CFU/mL methicillin-resistance Staphylococcus aureus (MRSA) USA-300 (FIG. 4B). […] This treatment regime was also conducted for the Vehicle (1.9% Boric Acid, pH 7) as a control (n=4). Tissue samples were collected at 25 hr post-infection (FIG. 4A) and 28 hr post-infection (FIG. 4B). […] (FIG. 5).

[4] = system: Gram-negative organisms
[5] = system: Gram-positive organisms
[6] = system: E. coli; experiment: Microdilution checkerboard analyses; assay type: cell-based, Escherichia coli
Protocol: as §1, with “The GFP promoter library (Keseler, I. M. et al. EcoCyc: fusing model organism databases with systems biology. Nucleic Acids Res 41, D605-612, doi:10.1093/nar/gks1027 (2013)) was grown for 18 hours at ambient temperature with the same inoculation strategy as with the Keio collection. The analysis pipeline of Zaslaver et al (Zaslaver, A. et al. A comprehensive library of fluorescent transcriptional reporters for Escherichia coli. Nat Methods 3, 623-628, doi:10.1038/nmeth895 (2006)) was used to generate maps of promoter activity, from which lists of promoters with increased or decreased activity were compiled.” left out

[7] = for pH of MHB media: prior to pH-adjusting to 7.4
From the text: Test media were pH-adjusted upon addition of sodium bicarbonate for all studies reported herein.

[8] = system: Acinetobacter baumannii; experiment: MIC determination (CLSI protocol); assay type: cell-based
Protocol: as §1, with “The GFP promoter library (Keseler, I. M. et al. EcoCyc: fusing model organism databases with systems biology. Nucleic Acids Res 41, D605-612, doi:10.1093/nar/gks1027 (2013)) was grown for 18 hours at ambient temperature with the same inoculation strategy as with the Keio collection. The analysis pipeline of Zaslaver et al (Zaslaver, A. et al. A comprehensive library of fluorescent transcriptional reporters for Escherichia coli. Nat Methods 3, 623-628, doi:10.1038/nmeth895 (2006)) was used to generate maps of promoter activity, from which lists of promoters with increased or decreased activity were compiled.” left out

[9] = system: Klebsiella pneumoniae; experiment: MIC determination (CLSI protocol); assay type: cell-based
Protocol: as §1, with “The GFP promoter library (Keseler, I. M. et al. EcoCyc: fusing model organism databases with systems biology. Nucleic Acids Res 41, D605-612, doi:10.1093/nar/gks1027 (2013)) was grown for 18 hours at ambient temperature with the same inoculation strategy as with the Keio collection. The analysis pipeline of Zaslaver et al (Zaslaver, A. et al. A comprehensive library of fluorescent transcriptional reporters for Escherichia coli. Nat Methods 3, 623-628, doi:10.1038/nmeth895 (2006)) was used to generate maps of promoter activity, from which lists of promoters with increased or decreased activity were compiled.” left out

[10] = system: Pseudomonas aeruginosa; experiment: MIC determination (CLSI protocol); assay type: cell-based
Protocol: as §1, with “The GFP promoter library (Keseler, I. M. et al. EcoCyc: fusing model organism databases with systems biology. Nucleic Acids Res 41, D605-612, doi:10.1093/nar/gks1027 (2013)) was grown for 18 hours at ambient temperature with the same inoculation strategy as with the Keio collection. The analysis pipeline of Zaslaver et al (Zaslaver, A. et al. A comprehensive library of fluorescent transcriptional reporters for Escherichia coli. Nat Methods 3, 623-628, doi:10.1038/nmeth895 (2006)) was used to generate maps of promoter activity, from which lists of promoters with increased or decreased activity were compiled.” left out

[11] = system: S. aureus (Strain Newman); experiment: MIC determination (CLSI protocol) in MHB; assay type: cell-based, Staphylococcus aureus; details: for MIC, S. aureus, MHB−: MHB without sodium bicarbonate
Protocol: as §1

[12] = system: Enterococcus faecium
Protocol: In the following experiments, bacterial cells were cultured in 96-well microtiter plates in cation-adjusted Mueller-Hinton Broth (MHB) for 18 h at 37° C. The main strains used in this study were E. coli (K-12 BW25113) (placed in stationary incubator) and S. aureus (Strain Newman) (incubated at 250 r.p.m). Knockout strains (ΔtolcC and ΔychM) were used from the Keio knockout collection (Baba, T. et al. Construction of Escherichia coli K-12 in-frame, single-gene knockout mutants: the Keio collection. Mol Syst Biol 2, 2006 0008, doi:10.1038/msb4100050 (2006)). For minimum concentration for inhibition (MIC) determination and checkerboard analyses, Clinical & Laboratory Standards Institute (CLSI) protocol was used. […] DiSC3 loading of S. aureus cells was performed as previously described (Farha, M. A., Verschoor, C. P., Bowdish, D. & Brown, E. D. Collapsing the proton motive force to identify synergistic combinations against Staphylococcus aureus. Chemistry & biology 20, 1168-1178, doi:10.1016/j.chembiol.2013.07.006 (2013)). CCCP concentration of 20 μM was used. pH adjustments were made by addition of HCl or NaOH. […]

[13] = system: Klebsiella pneumonia (ATCC 43816); details: mice
Protocol: Mice were infected with Klebsiella pneumonia (ATCC 43816; inoculum=2.5×10^6 CFU/mL). Following infection, the infected mice were treated with 4 mL nebulized doses of 225 mM sodium bicarbonate using a chamber nebulizer delivery system (Kent Scientific) at 2, 12 and 24 hours post-infection. The mice were sacrificed after 36 hours, and bacterial counts enumerated.

[14] = fold enhancement of MIC with 25 mM sodium bicarbonate, negative = suppression

## N=C(N)c1ccc(OCCCCCOc2ccc(C(=N)N)cc2)cc1 [pentamidine]
[1]
  MIC of pentamidine, tissue culture media formulated to mimic the natural environment: 1.5 µg/mL
[2]; combination of pentamidine 10 mg/kg and novobiocin IP
  A. baumannii organ load (spleen), combination: total clearance
[2]; pentamidine alone IP
  decrease of A. baumannii organ load (spleen): seven
[3]
  effect of addition of bicarbonate on efficacy of pentamidine in clearing MRSA infection: increased the antibacterial efficacy
[4]
  potentiation of antibacterial activity in the presence of bicarbonate, average: 40 fold
[5]
  potentiation of antibacterial activity in the presence of bicarbonate, average: 50 fold

## O=P([O-])([O-])[O-].[Na+].[Na+].[Na+] [trisodium phosphate]
[6]; pH not adjusted (pH ~10)
  effect on activity of dirithromycin (checkerboard): potentiated the activity of dirithromycin
[6]; pH of the medium adjusted to 7.2
  effect on activity of dirithromycin (checkerboard): loss of synergy
[7]; trisodium phosphate added
  increase of the pH of the media: 3 units

## O=C([O-])O.[Na+] [Sodium bicarbonate]
[1]; Escherichia coli
  MIC of sodium bicarbonate: 100 mM
[8]
  MIC of sodium bicarbonate: 50 mM
[9]
  MIC of sodium bicarbonate: 100 mM
[10]
  MIC of sodium bicarbonate: >100 mM
[11]; Staphylococcus aureus
  MIC of sodium bicarbonate: 50 to 100 mM
[12]
  MIC of sodium bicarbonate: 50 to 100 mM
[6]; E. coli, dose-dependent
  effect on activity of pentamidine (checkerboard): greatly potentiated the activity of pentamidine
[13]; 225 mM nebulized
  tolerability of nebulized bicarbonate: well tolerated
[13]; 4 mL nebulized 225 mM sodium bicarbonate at 2, 12, 24 h, counts after 36 hours, inoculum 2.5×10^6 CFU/mL
  bacterial counts: 4×10^4-4×10^5 CFU/mL
[7]; 3.12 mM sodium bicarbonate
  pH of MHB media: 7.42
[7]; 25 mM sodium bicarbonate
  pH of MHB media: 7.53
[7]; 50 mM sodium bicarbonate
  pH of MHB media: 7.61
[7]; 100 mM sodium bicarbonate
  pH of MHB media: 7.71

## CN[C@H](CC(C)C)C(=O)N[C@H]1C(=O)N[C@@H](CC(N)=O)C(=O)N[C@H]2C(=O)N[C@H]3C(=O)N[C@H](C(=O)N[C@H](C(=O)O)c4cc(O)cc(O)c4-c4cc3ccc4O)[C@H](O)c3ccc(c(Cl)c3)Oc3cc2cc(c3O[C@@H]2O[C@H](CO)[C@@H](O)[C@H](O)[C@H]2O[C@H]2C[C@](C)(N)[C@H](O)[C@H](C)O2)Oc2ccc(cc2Cl)[C@H]1O [Vancomycin]
[1]; [14]
  Fold, E. coli: 1 fold
[11]
  MIC, S. aureus, MHB−: 1 µg/mL
[11]; [14]
  Fold, S. aureus: −4 fold

## CN[C@@H]1[C@H](O)[C@H](NC)[C@H]2O[C@@]3(O)C(=O)C[C@@H](C)O[C@H]3O[C@@H]2[C@H]1O [Spectinomycin]
[1]
  Fold, E. coli: 4 fold
  MIC, E. coli, MHB+: 4
[11]
  Fold, S. aureus: 8 fold
  MIC, S. aureus, MHB−: 64 µg/mL

## CC[C@H](C)[C@H](N)C1=N[C@H](C(=O)N[C@@H](CC(C)C)C(=O)N[C@H](CCC(=O)O)C(=O)N[C@H](C(=O)N[C@H]2CCCCNC(=O)[C@H](CC(N)=O)NC(=O)[C@@H](CC(=O)O)NC(=O)[C@H](Cc3cnc[nH]3)NC(=O)[C@@H](Cc3ccccc3)NC(=O)[C@H]([C@@H](C)CC)NC(=O)[C@@H](CCCN)NC2=O)[C@@H](C)CC)CS1 [Bacitracin] ({Ileψ(thiazoline)Cys}-L[dE]IK[dOrn]I[dF]H[dD]N; lactam 4-C)
[1]
  Fold, E. coli: 1 fold
  MIC, E. coli, MHB+: >256
[11]
  Fold, S. aureus: −2 fold
  MIC, S. aureus, MHB−: 32 µg/mL

## CC[C@H]1OC(=O)[C@H](C)[C@@H](O[C@H]2C[C@@](C)(OC)[C@@H](O)[C@H](C)O2)[C@H](C)[C@@H](O[C@@H]2O[C@H](C)C[C@H](N(C)C)[C@H]2O)[C@](C)(O)C[C@@H](C)[C@@H]2N[C@@H](COCCOC)O[C@H]([C@H]2C)[C@]1(C)O [Dirithromycin]
[1]
  Fold, E. coli: 32 fold
  MIC, E. coli, MHB+: 4
[11]
  Fold, S. aureus: 8 fold
  MIC, S. aureus, MHB−: 4 µg/mL
